Data from ChEMBL document CHEMBL2331328, “Synthetic approaches to DNMT inhibitor SGI-1027 and effects on the U937 leukemia cell line” (Bioorg Med Chem Lett, 2013).
Active and inactive are the calls of the source. No cut-off for these calls is given here.

Experiments:
[1] = molecular target: DNA (cytosine-5)-methyltransferase 1 (Homo sapiens) (UniProt P26358); experiment: Inhibition of human DNMT1 using AdoMet and poly dI-dC at 50 uM after 2 hrs by radioactive assay
[2] = test system: U-937; experiment: Cell cycle arrest in human U937 cells at 5 to 50 uM after 30 hrs by FACS analysis; type: functional, cell-based
[3] = test system: U-937; experiment: Induction of apoptosis in human U937 cells assessed as accumulation at pre-G1 phase after 30 hrs by FACS analysis; type: functional, cell-based

Sequence of DNA (cytosine-5)-methyltransferase 1 (Homo sapiens) (P26358 whole entry): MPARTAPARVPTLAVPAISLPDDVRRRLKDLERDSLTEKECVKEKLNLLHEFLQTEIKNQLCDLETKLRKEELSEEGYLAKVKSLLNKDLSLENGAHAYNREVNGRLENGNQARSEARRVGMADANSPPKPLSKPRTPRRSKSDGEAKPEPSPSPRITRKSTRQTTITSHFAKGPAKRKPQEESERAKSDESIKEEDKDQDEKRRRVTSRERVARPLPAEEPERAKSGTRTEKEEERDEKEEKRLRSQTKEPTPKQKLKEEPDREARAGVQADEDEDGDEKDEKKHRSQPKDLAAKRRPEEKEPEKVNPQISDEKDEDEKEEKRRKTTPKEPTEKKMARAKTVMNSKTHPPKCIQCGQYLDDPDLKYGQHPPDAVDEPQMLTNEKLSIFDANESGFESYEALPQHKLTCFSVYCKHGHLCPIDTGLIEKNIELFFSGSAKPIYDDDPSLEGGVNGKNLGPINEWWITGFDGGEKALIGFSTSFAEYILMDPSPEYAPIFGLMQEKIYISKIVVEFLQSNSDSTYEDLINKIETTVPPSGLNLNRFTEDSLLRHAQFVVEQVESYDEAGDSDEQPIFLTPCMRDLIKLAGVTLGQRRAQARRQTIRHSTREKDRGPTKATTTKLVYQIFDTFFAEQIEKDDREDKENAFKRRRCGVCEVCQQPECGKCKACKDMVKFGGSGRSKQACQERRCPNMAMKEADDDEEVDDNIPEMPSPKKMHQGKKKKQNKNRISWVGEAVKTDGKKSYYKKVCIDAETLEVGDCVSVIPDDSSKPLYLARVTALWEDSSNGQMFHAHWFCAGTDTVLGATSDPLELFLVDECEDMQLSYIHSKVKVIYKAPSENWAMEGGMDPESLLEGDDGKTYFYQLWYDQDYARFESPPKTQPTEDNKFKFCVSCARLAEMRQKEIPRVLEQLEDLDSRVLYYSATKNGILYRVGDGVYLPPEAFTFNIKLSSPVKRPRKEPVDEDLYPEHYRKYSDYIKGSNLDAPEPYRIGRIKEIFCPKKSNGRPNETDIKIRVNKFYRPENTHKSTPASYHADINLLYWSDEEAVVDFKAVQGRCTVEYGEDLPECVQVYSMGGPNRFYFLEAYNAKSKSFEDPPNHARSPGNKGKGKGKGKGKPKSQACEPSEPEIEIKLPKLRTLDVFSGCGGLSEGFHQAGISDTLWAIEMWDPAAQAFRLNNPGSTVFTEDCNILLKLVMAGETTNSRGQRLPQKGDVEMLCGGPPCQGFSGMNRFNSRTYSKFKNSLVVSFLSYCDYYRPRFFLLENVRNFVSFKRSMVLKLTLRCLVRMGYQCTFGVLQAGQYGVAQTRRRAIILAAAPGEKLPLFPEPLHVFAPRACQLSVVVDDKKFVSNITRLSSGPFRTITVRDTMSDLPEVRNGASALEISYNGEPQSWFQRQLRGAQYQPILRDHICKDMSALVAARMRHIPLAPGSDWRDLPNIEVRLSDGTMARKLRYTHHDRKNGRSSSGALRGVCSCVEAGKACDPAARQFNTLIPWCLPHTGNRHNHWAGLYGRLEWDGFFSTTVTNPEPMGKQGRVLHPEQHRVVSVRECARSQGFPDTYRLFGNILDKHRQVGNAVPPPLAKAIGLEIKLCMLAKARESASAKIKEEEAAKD

Row | inhibition [1] | SMILES | Activity [2] | Activity [3]
1 | Active | O=C(O)[C@H](Cc1c[nH]c2ccccc12)N1C(=O)c2ccccc2C1=O |  | 
2 | Active | Cc1cc(Nc2ccc(NC(=O)c3ccc(Nc4ccnc5ccccc45)cc3)cc2)nc(N)n1 | inactive | Dose-dependent effect
